Source: PubChem BioAssay (NCI)
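Five concentrations, 48 hours, 96-well plates. At the TGI there is no net growth.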

Legend:
Assay in all cases: inhibition of tumour cell growth, NCI panel, 48 h
SF-268 CNS = tested on: SF-268 CNS
EKVX NSCLC = tested on: EKVX NSCLC
HCC-2998 colon = tested on: HCC-2998 colon
NCI-H522 lung = tested on: NCI-H522 lung
DMS 273 small cell lung = tested on: DMS 273 small cell lung
DLD-1 colon = tested on: DLD-1 colon
UACC-62 melanoma = tested on: UACC-62 melanoma
HL-60(TB) leukemia = tested on: HL-60(TB) leukemia
RPMI-8226 leukemia = tested on: RPMI-8226 leukemia
K-562 leukemia = tested on: K-562 leukemia
HS 578T breast = tested on: HS 578T breast

| SMILES | TGI (SF-268 CNS) | TGI (EKVX NSCLC) | TGI (HCC-2998 colon) | TGI (NCI-H522 lung) | TGI (DMS 273 small cell lung) | TGI (DLD-1 colon) | TGI (UACC-62 melanoma) | TGI (HL-60(TB) leukemia) | TGI (RPMI-8226 leukemia) | TGI (K-562 leukemia) | TGI (HS 578T breast) |
| --- | --- | --- | --- | --- | --- | --- | --- | --- | --- | --- | --- |
| CCC1=C(C[C@H]2NCCc3cc(OC)c(OC)cc32)C[C@H]2c3cc(OC)c(OC)cc3CCN2C1 | 0.407 µM | 0.175 µM | 0.0964 µM | 0.0688 µM | 0.109 µM | 0.349 µM | 0.138 µM | 0.0765 µM | 0.229 µM | – | – |
| Cc1ccc(N2C(=O)C3CSCN3C2=O)cc1 (configuration not stated) | > 100 µM | > 100 µM | > 100 µM | > 100 µM | – | > 100 µM | > 100 µM | > 100 µM | > 100 µM | > 100 µM | – |
| Cc1cc2c(=O)c3ccc(Cl)cc3[nH]c2c(C(N)=O)c1C | > 100 µM | > 100 µM | > 100 µM | > 100 µM | > 100 µM | > 100 µM | > 100 µM | > 100 µM | > 100 µM | > 100 µM | – |
| Cc1cc(=O)[nH]c(NNC(C#N)c2ccccc2O)n1 (configuration not stated) | > 100 µM | – | – | > 100 µM | > 100 µM | > 100 µM | 70.3 µM | 50.5 µM | > 100 µM | > 100 µM | – |
| O=C1C=CC(=O)c2c1ccc1c3ccccc3n(Cc3ccccc3)c21 | > 77.6 µM | > 100 µM | > 79.5 µM | 19.9 µM | – | – | 67.8 µM | 15.3 µM | 34.6 µM | 10.6 µM | > 100 µM |
| Clc1ccc(-c2nn3c(COc4cccc(OCc5nnc6sc(-c7ccc(Cl)cc7)nn56)c4)nnc3s2)cc1 | > 100 µM | 56.8 µM | 96.2 µM | 55.3 µM | – | – | 77.1 µM | 53.6 µM | > 100 µM | > 100 µM | > 100 µM |
| Cn1c2ccc(Cl)cc2c2ccc3c(c21)C(=O)C=CC3=O | > 10 µM | > 10 µM | > 10 µM | > 10 µM | – | – | > 10 µM | > 10 µM | > 10 µM | > 10 µM | > 10 µM |
| COc1cc(S(=O)(=O)Nc2ccc(-c3csc(N4C(=O)C(Cl)C4c4ccccc4O)n3)cc2)ccc1Cl (configuration not stated) | > 100 µM | > 100 µM | 38.5 µM | 3.48 µM | – | – | 59.1 µM | 49.7 µM | 83.9 µM | > 100 µM | > 100 µM |
